Experimental data: patent publication US5492909A, “Triazolopyridazine derivatives, their production and use” (Takeda Chemical Industries, Ltd., priority 1993, dated 1996)

Test system: PAF-induced bronchoconstriction
Experiment: Effect on bronchoconstriction induced by platelet activating factor (PAF) in guinea pigs (Konzett-Roessler method)
Format: in vivo, guinea pig (male Hartley)
Conditions: oral, 1 hour before PAF (1 μg/kg i.v.)
Description: [Effect on bronchoconstriction induced by platelet activating factor (PAF) in guinea pigs]
Male Hartley guinea pigs (body weights about 500 g) were used. The bronchoconstriction reaction in the guinea pig which has intravenously been administered with PAF (1 μg/kg) was measured by the Konzett-Roessler method.
The trachea of the guinea pig with its back fixed was incised under anesthesia condition with urethane (intravenous injection, 1.5 g/kg) and connected with an artificial respirator via a cannula. The branch of the tracheal cannula was connected with a transducer (7020 type, manufactured by Ugobasile). Air was sent to the trachea at the rate of 3 to 7 ml per stroke, 70 strokes/min. and at load pressure of 10 cm H2 O to lung, and overflowed air volume was recorded with Rectegraph (Recte-Hori-8s, Sanei Sokuki Co., Ltd., Japan) via transducer. After the guinea pig was treated with gallamine (intravenous injection, 1 mg/kg), 1 μg/kg of PAF dissolved in a physiological saline solution was administered to the guinea pig via jugular venous cannula and the bronchoconstriction reaction induced thereby was recorded for 15 minutes. The drug (3 mg/kg and 10 mg/kg respectively) suspended in a 5% gum arabic solution was administered orally 1 hour before the injection of PAF.

Structure (SMILES)	Inhibition (%) of PAF-induced bronchoconstriction (3 mg/kg) [%]	Inhibition (%) of PAF-induced bronchoconstriction (10 mg/kg) [%]
CCC(CC)(COc1cc(C)c2nncn2n1)CS(N)(=O)=O [Example 1, 6-(2,2-diethyl-3-sulfamoyl-1-propoxy)-8-methyl-[1,2,4]triazolo[4,3-b]pyridazine]	85.8	100
CC(C)(COc1ccc2nncn2n1)CS(N)(=O)=O [Example 5, 6-(2,2-dimethyl-3-sulfamoyl-1-propoxy)[1,2,4]triazolo[4,3-b]pyridazine]	22.4	41.2
CCC(CC)(COc1ccc2nncn2n1)CS(N)(=O)=O [Example 3, 6-(2,2-diethyl-3-sulfamoyl-1-propoxy)[1,2, 4]triazolo[4,3-b]pyridazine]	51.1	61.2
